Literature values, collected in US20030104085A1, “Methods and compositions for treating back pain” (priority 2001, published 2003).

What was measured:
[1] = test system: rats; details: subcutaneous and epidural administration; cited from earlier work
[2] = test system: nerve endings in the skin; details: topical administration; cited from earlier work

## C=C(C)[C@]12C[C@@H](C)[C@@]34O[C@](Cc5ccccc5)(O[C@@H]1[C@@H]3C=C(COC(=O)Cc1ccc(O)c(OC)c1)C[C@]1(O)C(=O)C(C)=C[C@@H]41)O2 [RTX, resiniferatoxin]
[1]
  thermal analgesia: produce thermal analgesia
  time without restoration of pain sensitivity: over 7 days
[2]
  sensitivity to chemical pain stimulation: long-lasting insensitivity to chemical pain stimulation
